In patent US6184230A, “Anti-helicobacter pylori pharmaceutical composition” (Yamanouchi Pharmaceutical Co., Ltd., priority 1997, dated 2001):
Values after ≈ are worked out from the molar mass of the structure shown.

Columns and labels:
Assay type in all cases: cell-based
Helicobacter pylori = assay: Anti-Helicobacter pylori activity (general statement)
other bacteria = assay: Selectivity, influence upon other bacteria (general statement)
[1] = system: Helicobacter pylori ATCC 43504; assay: Measurement of antibacterial activity (in vitro, MIC on Brucella agar), Example 2; details: ATCC43504, Brucella agar medium (0.1% β-cyclodextrin), 37° C., 3 days (72 hours), N2 80%, CO2 15%, O2 5%
Description: An in vitro test of the aforementioned substance was carried out in the following manner.
Measurement of antibacterial activity
(§1) Preparation of Antibacterial Substance-containing Agar Plate
(§2) The substance to be evaluated was dissolved in 100% dimethyl sulfoxide (DMSO) and diluted by 2-fold serial dilution. Each of the dilution solutions was put into a sterilized round Petri dish and mixed with 10 ml of Brucella agar medium (0.1% β-cyclodextrin) which had been sterilized and kept at 50° C., and the mixture was solidified. Final concentration of DMSO becomes 1% or less.
(§3) Preparation of Inoculation Material and Judgment of Test Results
A Helicobacter pylori strain, for example Helicobacter pylori ATCC 43504, was cultured at 37° C. for 3 days in a multi gas incubator (N2 : 80%, CO2 : 15%, O2: 5 %) using Brucella agar medium (containing 5% calf serum albumin) and then prepared into a cell suspension of about 10^8 cells/1 ml using Brucella broth based on its turbidity. The cell suspension was diluted 100 times with Brucella broth, and about 5 μl portion of the dilution was inoculated onto the surface of the drug-containing agar medium using a microplanter. The thus inoculated agar plate was cultured at 37° C. for 3 days (72 hours) in the aforementioned multi gas incubator. […]

[2] = system: Pseudomonas aeruginosa NCTC 10490; assay: In vitro test on facultative anaerobes and aerobes (MIC), Example 3; details: NCTC10490; Pseudomonas aeruginosa NCTC 10490, Muller-Hinton agar, 37° C., 18 hours
Description: (§4) An in vitro test on facultative anaerobes and aerobes was carried out in the following manner.
as §1
as §2, with “Muller-Hinton” for “Brucella”, “medium” for “medium (0.1% β-cyclodextrin)”
as §3
(§5) Each strain to be tested was cultured overnight in an incubator set at 37° C. using Muller-Hinton broth, and the resulting broth was diluted to a density of about 10^6 cells/1 ml using Muller-Hinton broth. About 5 μl portion of the dilution was inoculated onto the surface of the drug-containing agar medium using a microplanter. The thus inoculated agar plate was cultured at 37° C. for 18 hours in an incubator. After completion of the culturing, the agar plate was observed, and the minimum drug concentration by which cell growth was not observed was defined as MIC.

Escherichia coli 0-1 = assay: as above; details: 01; Escherichia coli 0-1, Muller-Hinton agar, 37° C., 18 hours
Description: as §4, §1
as §2, with “Muller-Hinton” for “Brucella”, “medium” for “medium (0.1% β-cyclodextrin)”
as §3, §5

[3] = system: Staphylococcus aureus FDA 209P; assay: as above; details: FDA209P, Muller-Hinton agar, 37° C., 18 hours
Description: as §4, §1
as §2, with “Muller-Hinton” for “Brucella”, “medium” for “medium (0.1% β-cyclodextrin)”
as §3, §5

[4] = system: Bacteroides fragiris GAI 5562; assay: In vitro test on anaerobes (MIC), Example 4; details: GAI5562, 18 h
Description: (§6) An in vitro test on anaerobes was carried out in the following manner.
as §1
as §2, with “GAM” for “Brucella”, “medium” for “medium (0.1% β-cyclodextrin)”
as §3
(§7) Each strain to be tested was cultured overnight at 37° C. in GAM broth using an anaerobic culturing apparatus whose inside atmosphere had been replaced with a mixed gas system of 80% N2, 10% CO2 and 10% H2, and the resulting broth was diluted to a density of about 10^6 cells/1 ml using the same GAM broth. About 5 μl portion of the dilution was inoculated onto the surface of the drug-containing agar medium using a microplanter. The thus inoculated agar plate was cultured at 37° C. for 18 hours using the anaerobic culturing apparatus. After completion of the culturing, the agar plate was observed, and the minimum drug concentration by which cell growth was not observed was defined as MIC.

[5] = system: Bifidobacterium bifidum CAYA 21-1; assay: In vitro test on anaerobes (MIC), Example 4; details: CAYA211, 18 h
Description: as §6, §1
as §2, with “GAM” for “Brucella”, “medium” for “medium (0.1% β-cyclodextrin)”
as §3, §7

[6] = system: Peptostreptococcus productus CAYA 12-2; assay: In vitro test on anaerobes (MIC), Example 4; details: Blautia producta, CAYA122, 18 h
Description: as §6, §1
as §2, with “GAM” for “Brucella”, “medium” for “medium (0.1% β-cyclodextrin)”
as §3, §7

| SMILES | anti-Helicobacter pylori activity (Helicobacter pylori) | influences upon other bacteria (other bacteria) | selectivity (other bacteria) | MIC [1] [µg/mL] | MIC [2] [µg/mL] | MIC (Escherichia coli 0-1) [µg/mL] | MIC [3] [µg/mL] | MIC [4] [µg/mL] | MIC [5] [µg/mL] | MIC [6] [µg/mL] |
| --- | --- | --- | --- | --- | --- | --- | --- | --- | --- | --- |
| CCCCCC/C=C/Cc1c(C)c(=O)c2ccccc2n1O [YL-02729S] | excellent anti-Helicobacter pylori activity | does not exert influences upon other bacteria | high selectivity |  |  |  |  |  |  |  |
| CCCCCC/C=C/Cc1c(C)c(=O)c2ccccc2n1O [1-hydroxy-2-(2-trans-nonenyl)-3-methyl-4(1H)-quinolone] |  |  |  | 0.025 (≈ 0.0835 µM) | ≥ 12.5 | ≥ 12.5 | ≥ 12.5 | > 25 | > 25 | > 25 |
